Experimental data as given in US6949522B2, “β-2′- or 3′-halonucleosides” (Pharmasset, Inc., priority 2001, dated 2005).
Where two headings read alike, the source gives them in different places.

Legend:
[1] = tested on: HIV-1LAI; assay: HIV assay in human PBM cells (RT activity of supernatant); format: cell-based; settings: 5 days, read-out: Anti-HIV-1 Activity (EC50)
From the text: Human peripheral blood mononuclear (PBM) cells (obtained from Atlanta Red Cross) were isolated by Ficoll-Hypaque discontinuous gradient centrifugation from healthy seronegative donors. Cells were stimulated with phytohemagglutinin A (Difco, Sparks, Md.) for 2-3 days prior to use. HIV-1LAI obtained from the Centers for Disease Control and Prevention (Atlanta, Ga.) was used as the standard reference virus for the antiviral assays. The molecular infetious clones HIV-1xxBru and HIV-1M184Vpin were obtained from Dr. John Mellors (University of Pittsburgh). Infections were done in bulk for one hour, either with 100 TCID50/1×10^7 cells for a flask (T25) assay or with 200 TCID50/6×10^5 cells/well for a 24 well plate assay. Cells were added to a plate or flask containing a ten-fold serial dilution of the test compound. Assay medium was RPMI-1640 supplemented with heat inactivated 16% fetal bovine serum, 1.6 mM L-glutamine, 80 IU/ml penicillin, 80 μg/ml streptomycin, 0.0008% DEAE-Dextran, 0.045% sodium bicarbonate, and 26 IU/ml recombinant interleukin-2 (Chiron Corp, Emeryville, Calif.). AZT was used as a positive control for the assay. Untreated and uninfected PBM cells were grown in parallel at equivalent cell concentrations as controls. The cell cultures were maintained in a humidified 5% CO2-air at 37° C. for 5 days and supernatants were collected for reverse transcriptase (RT) activity.
Supernatants were centrifuged at 12,000 rpm for 2 hours to pellet the virus. The pellet was solubilized with vortexing in 100 μl virus solubilization buffer (VSB) containing 0.5% Triton X-100, 0.8 M NaCl, 0.5 mM phenylmethylsulfonyl fluoride, 20% glycerol, and 0.05 M Tris, pH 7.8. Ten μL of each sample were added to 75 μL RT reaction mixture (0.06 M Tris, pH 7.8, 0.012 M MgCl2, 0.006 M dithiothreitol, 0.006 mg/ml poly (rA)n, oligo (dT)12-18, 96 μg/ml dATP, and 1 μM of 0.08 mCi/ml ^3H-thymidine triphosphate (Moravek Biochemicals, Brea, Calif.) and incubated at 37° C. for 2 hours. The reaction was stopped by the addition of 100 μL 10% trichloroacetic acid containing 0.05% sodium pyrophosphate. The acid insoluble product was harvested onto filter paper using a Packard Harvester (Meriden, Conn.), and the RT activity was read on a Packard Direct Beta Counter (Meriden, Conn.). The RT results were expressed in counts per minute (CPM) per milliliter.

[2] = tested on: β-actin gene; format: cell-based, human; settings: human, 7 days, 10 μM
Description: Low passage number HepG2 cells, obtained from American Tissue Culture Collection (ATCC, Manassas, Va.) were seeded at 5,000 cells/well in collagen-coated 96-well plates. Test compounds were added to the media to obtain a final concentration of 10 μM. On culture day 7, cellular nucleic acids were prepared by using commercially available columns (RNeasy 96 kit, Qiagen). […] The mitochondrial cytochrome C oxidase subunit II (COXII) gene and the β-actin or rRNA gene were amplified from 5 μL with a multiplex Q-PCR protocol using the suitable primers and probes for both target and reference (designed using the Primer Express software, Applied Biosystems); • for COXII. • sense primer 5′-[…]-3′ (Sequence 7); • probe 5′-TET-[…]-TAMRA-3′ (Sequence 8); and • antisense probe 5′-[…]-3′ (Sequence 9); • for exon 3 of β-actin (GenBank E01094): • sense primer 5′-[…]-3′ (Sequence 10); • probe 5′-6FAM-[…]-TAMRA-3′ (Sequnece 11); and • antisense probe 5′-[…]-3′ (Sequence 12).
The rRNA gene primers and probes were purchased from Applied Biosystems. Standard curves using 1-log diluted total HepG2 DNA were linear over more than 5 logs. In addition, efficiencies of target (COXII DNA) and reference (β-actin DNA or rRNA) amplification were approximately equal, because the slope of the ΔCt line (Ct β-actin minus Ct mitochondrial) was less than 0.1 (not shown). Since equal amplification efficiencies were obtained for both genes, the comparative cycle threshold (Ct) method was used to investigate potential inhibition of the mitochondrial DNA polymerase γ. The comparative Ct method uses arithmetic formulas in which the amount of target (COXII gene) is normalized to an endogenous reference (β-actin gene or rRNA gene) and is relative to a calibrator (no drug control at day 7). The arithmetic formula for this approach is given by 2-ΔΔCt (User bulletin # 2, Applied Biosystems).
In order to study the consequences of possible inhibitory effects of these compounds on host DNA polymerases, nuclear and rnitochondrial DNA levels were quantified and compared to no-treatment controls. Cells were incubated for 7 days with 10 μM of each compound, followed by total nucleic acid extractions and multiplex Q-PCR of the rRNA gene and the mitochondrial COXII gene. Nucleic acids from cells exposed to the control compounds were also amplified in multiplex for mitDNA and the β-actin gene. The results are presented in Table 4 using the comparative Ct method.

[3] = in vitro; format: cell-based, human; settings: human
In short: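 Cytotoxicity measured in uninfected PHA-stimulated human PBM cells (Ficoll-Hypaque-isolated from HIV-1/HBV-seronegative donors), CEM T-lymphoblastoid and Vero cells exposed to ten-fold serial drug dilutions. Viability read by MTT dye reduction, overnight dye incubation, absorbance at 570 nm.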

Structure (SMILES)	EC50 [1]	Average ΔCt ± SD β-actin DNA [2]	IC50 at 5 days [3]	EC50 ([1]; Human immunodeficiency virus 1, PBMC, 120 h)
Nc1nc(=O)n([C@H]2S[C@@H](CO)C=C2F)cc1F [Compound L-18, (+)-1-[(1S,4R)-2,3-dideoxy-2,3-didehydro-2-fluoro-4-thio-β-L-ribofuranosyl]-5-fluoro-cytosine]	150 nM	–	–	–
Nc1nc(=O)n([C@@H]2S[C@H](CO)C=C2F)cc1F [Compound D-18, (−)-1-[(1S,4R)-2,3-dideoxy-2,3-didehydro-2-fluoro-4-thio-β-D-ribofuranosyl]-5-fluorocytosine]	11600 nM	–	–	–
Cc1cn([C@H]2C[C@H](N=[N+]=[N-])[C@@H](CO)O2)c(=O)[nH]c1=O [AZT, 3′-azido-3′-deoxythymidine, reference compound]	–	0.10 ± 0.38	> 100000 nM	4 nM
Nc1ccn([C@@H]2S[C@H](CO)C=C2F)c(=O)n1 [Compound D-17, (−)-1-[(1S,4R)-2,3-dideoxy-2,3-didehydro-2-fluoro4-thio-β-D-ribofuranosyl]-cytosine]	1300 nM	–	–	–
Nc1ccn([C@@H]2CS[C@H](CO)O2)c(=O)n1 [Compound 3TC, (−)-β-2′,3′-dideoxy-3′-thiacytidine, reference compound]	–	0.11 ± 0.23	–	–
